Source: ChEMBL document CHEMBL4665869, “New thiazolopyrimidine as anticancer agents: Synthesis, biological evaluation, DNA binding, molecular modeling and ADMET study” (Bioorg Med Chem Lett, 2020)

Key:
OVCAR-8 = assay: Growth inhibition of human OVCAR-8 cells at 10 uM relative to control; assay type: functional; details: read-out: GI
MDA-MB-435 = assay: Growth inhibition of human MDA-MB-435 cells at 10 uM relative to control; assay type: functional; details: read-out: GI
OVCAR-5 = assay: Growth inhibition of human OVCAR-5 cells at 10 uM relative to control; assay type: functional; details: read-out: GI
DNA = assay: Displacement of methyl green from DNA (unknown origin) assessed as DNA intercalation after 24 hrs by colorimetric assay; assay type: nucleic-acid assay
SF-539 = assay: Growth inhibition of human SF-539 cells at 10 uM relative to control; assay type: functional; details: read-out: GI
RXF 393 = assay: Growth inhibition of human RXF 393 cells at 10 uM relative to control; assay type: functional; details: read-out: GI
NCI-H322M = assay: Growth inhibition of human NCI-H322M cells at 10 uM relative to control; assay type: functional; details: read-out: GI
K562 = assay: Growth inhibition of human K562 cells at 10 uM relative to control; assay type: functional; details: read-out: GI
BT-549 = assay: Growth inhibition of human BT-549 cells at 10 uM relative to control; assay type: functional; details: read-out: GI
NCI-H522 = assay: Growth inhibition of human NCI-H522 cells at 10 uM relative to control; assay type: functional; details: read-out: GI
CAKI-1 = assay: Growth inhibition of human CAKI-1 cells at 10 uM relative to control; assay type: functional; details: read-out: GI
OVCAR-4 = assay: Growth inhibition of human OVCAR-4 cells at 10 uM relative to control; assay type: functional; details: read-out: GI
SNB-75 = assay: Growth inhibition of human SNB-75 cells at 10 uM relative to control; assay type: functional; details: read-out: GI
SK-MEL-5 = assay: Growth inhibition of human SK-MEL-5 cells at 10 uM relative to control; assay type: functional; details: read-out: GI
LOX IMVI = assay: Growth inhibition of human LOX IMVI cells at 10 uM relative to control; assay type: functional; details: read-out: GI
NCI-H460 = assay: Growth inhibition of human NCI-H460 cells at 10 uM relative to control; assay type: functional; details: read-out: GI
HL-60(TB) = assay: Growth inhibition of human HL-60(TB) cells at 10 uM relative to control; assay type: functional; details: read-out: GI
PC-3 = assay: Growth inhibition of human PC-3 cells at 10 uM relative to control; assay type: functional; details: read-out: GI
HCT-15 = assay: Growth inhibition of human HCT-15 cells at 10 uM relative to control; assay type: functional; details: read-out: GI
HCT-116 = assay: Growth inhibition of human HCT-116 cells at 10 uM relative to control; assay type: functional; details: read-out: GI
T47D = assay: Growth inhibition of human T47D cells at 10 uM relative to control; assay type: functional; details: read-out: GI
TK-10 = assay: Growth inhibition of human TK-10 cells at 10 uM relative to control; assay type: functional; details: read-out: GI
SF-268 = assay: Growth inhibition of human SF-268 cells at 10 uM relative to control; assay type: functional; details: read-out: GI
NCI/ADR-RES = assay: Growth inhibition of human NCI/ADR-RES cells at 10 uM relative to control; assay type: functional; details: read-out: GI
SW-620 = assay: Growth inhibition of human SW-620 cells at 10 uM relative to control; assay type: functional; details: read-out: GI
SR = assay: Growth inhibition of human SR cells at 10 uM relative to control; assay type: functional; details: read-out: GI
SK-MEL-2 = assay: Growth inhibition of human SK-MEL-2 cells at 10 uM relative to control; assay type: functional; details: read-out: GI
NCI-H226 = assay: Growth inhibition of human NCI-H226 cells at 10 uM relative to control; assay type: functional; details: read-out: GI
UO-31 = assay: Growth inhibition of human UO-31 cells at 10 uM relative to control; assay type: functional; details: read-out: GI
SK-MEL-28 = assay: Growth inhibition of human SK-MEL-28 cells at 10 uM relative to control; assay type: functional; details: read-out: GI

COc1cc(/C=C/C2=CC(c3cc(OC)c(OC)c(OC)c3)N3C(C)=CSC3=N2)cc(OC)c1OC (stereo not given)
< 10%: inhibition of growth at 10 µM (OVCAR-8) | inhibition of growth at 10 µM (MDA-MB-435) | inhibition of growth at 10 µM (OVCAR-5) | inhibition of growth at 10 µM (SF-539) | inhibition of growth at 10 µM (RXF 393) | inhibition of growth at 10 µM (NCI-H322M) | inhibition of growth at 10 µM (K562) | inhibition of growth at 10 µM (BT-549) | inhibition of growth at 10 µM (CAKI-1) | inhibition of growth at 10 µM (OVCAR-4) | inhibition of growth at 10 µM (SK-MEL-5) | inhibition of growth at 10 µM (LOX IMVI) | inhibition of growth at 10 µM (NCI-H460) | inhibition of growth at 10 µM (HL-60(TB)) | inhibition of growth at 10 µM (PC-3) | inhibition of growth at 10 µM (HCT-15) | inhibition of growth at 10 µM (HCT-116) | inhibition of growth at 10 µM (T47D) | inhibition of growth at 10 µM (TK-10) | inhibition of growth at 10 µM (SF-268) | inhibition of growth at 10 µM (NCI/ADR-RES) | inhibition of growth at 10 µM (SW-620) | inhibition of growth at 10 µM (SR) | inhibition of growth at 10 µM (SK-MEL-2) | inhibition of growth at 10 µM (NCI-H226) | inhibition of growth at 10 µM (UO-31) | inhibition of growth at 10 µM (SK-MEL-28)
12.5%: inhibition of growth at 10 µM (SNB-75)
14.5%: inhibition of growth at 10 µM (NCI-H522)
91.48 µg/mL: IC50 (DNA)
